Assays:
Experiment in all cases: relative viability (nuclei count vs DMSO), 5 days (fraction); higher = more cells survive
MK-8033 + Palbociclib = compound: Cn1cc(-c2cnc3ccc4ccc(CS(=O)(=O)NCc5ccccn5)cc4c(=O)c3c2)cn1 [MK-8033] + CC(=O)c1c(C)c2cnc(Nc3ccc(N4CCNCC4)cn3)nc2n(C2CCCC2)c1=O [Palbociclib] (partner 0.5 µM)
Outline: (§1)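 Lung cancer cell lines in 1536-well plates were dosed by pin tool the day after seeding, either with one drug alone or with a fixed anchor-drug dose plus five library-drug doses (not always all listed) in √10 steps. After 5 days, cells were fixed and their nuclei stained in one step (final 0.05% Triton X-100, 1% formaldehyde, 1 ug/ml Hoechst), then counted on 4× images. Relative viability is the nuclei count in treated wells divided by that in vehicle wells. Values are medians of duplicate plates.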

RU-SKI 43 + Pictilisib = compound: CC[C@@H](C)CNCC(=O)N1CCC2=C([C@@H]1COC3=CC=CC(=C3)C)C=CS2 [RU-SKI 43] + CS(=O)(=O)N1CCN(Cc2cc3nc(-c4cccc5[nH]ncc45)nc(N4CCOCC4)c3s2)CC1 [Pictilisib] (partner 1 µM)
Outline: as §1

MK-8033 + Trametinib = compound: Cn1cc(-c2cnc3ccc4ccc(CS(=O)(=O)NCc5ccccn5)cc4c(=O)c3c2)cn1 [MK-8033] + CC(=O)Nc1cccc(-n2c(=O)n(C3CC3)c(=O)c3c(Nc4ccc(I)cc4F)n(C)c(=O)c(C)c32)c1 [Trametinib] (partner 0.02 µM)
Outline: as §1

MK-8033 + AZD7762 = compound: Cn1cc(-c2cnc3ccc4ccc(CS(=O)(=O)NCc5ccccn5)cc4c(=O)c3c2)cn1 [MK-8033] + NC(=O)Nc1cc(-c2cccc(F)c2)sc1C(=O)N[C@H]1CCCNC1 [AZD7762] (partner 0.2 µM)
Outline: as §1

| Cell Line | relative viability (MK-8033 + Palbociclib; first compound 0.02 µM) | relative viability (MK-8033 + Palbociclib; first compound 0.06325 µM) | relative viability (MK-8033 + Palbociclib; first compound 0.2 µM) | relative viability (MK-8033 + Palbociclib; first compound 0.6325 µM) | relative viability (MK-8033 + Palbociclib; first compound 2 µM) | relative viability (RU-SKI 43 + Pictilisib; first compound 0.1 µM) | relative viability (RU-SKI 43 + Pictilisib; first compound 0.3162 µM) | relative viability (RU-SKI 43 + Pictilisib; first compound 1 µM) | relative viability (RU-SKI 43 + Pictilisib; first compound 3.162 µM) | relative viability (RU-SKI 43 + Pictilisib; first compound 10 µM) | relative viability (MK-8033 + Trametinib; first compound 0.02 µM) | relative viability (MK-8033 + Trametinib; first compound 0.06325 µM) | relative viability (MK-8033 + Trametinib; first compound 0.2 µM) | relative viability (MK-8033 + Trametinib; first compound 0.6325 µM) | relative viability (MK-8033 + Trametinib; first compound 2 µM) | relative viability (MK-8033 + AZD7762; first compound 0.02 µM) | relative viability (MK-8033 + AZD7762; first compound 0.06325 µM) | relative viability (MK-8033 + AZD7762; first compound 0.2 µM) | relative viability (MK-8033 + AZD7762; first compound 0.6325 µM) | relative viability (MK-8033 + AZD7762; first compound 2 µM) |
| --- | --- | --- | --- | --- | --- | --- | --- | --- | --- | --- | --- | --- | --- | --- | --- | --- | --- | --- | --- | --- |
| NCI-H1355 | 0.372 | 0.379 | 0.375 | 0.415 | 0.381 | 0.432 | 0.331 | 0.508 | 0.465 | 0.442 | 0.415 | 0.363 | 0.393 | 0.447 | 0.419 | 0.75 | 0.639 | 0.633 | 0.735 | 0.687 |
| NCI-H1395 | 0.499 | 0.588 | 0.654 | 0.612 | 0.624 | 0.607 | 0.574 | 0.668 | 0.58 | 0.542 | 0.911 | 0.983 | 1.01 | 1.05 | 1.03 | 0.397 | 0.35 | 0.381 | 0.383 | 0.389 |
| NCI-H1437 | 0.275 | 0.317 | 0.323 | 0.303 | 0.3 | 0.438 | 0.529 | 0.432 | 0.465 | 0.446 | 0.483 | 0.583 | 0.46 | 0.607 | 0.449 | 1.07 | 1.18 | 1.06 | 1.1 | 1.11 |
| NCI-H1651 | 0.51 | 0.498 | 0.514 | 0.536 | 0.521 | 0.606 | 0.783 | 0.76 | 0.621 | 0.728 | 0.823 | 0.846 | 0.845 | 0.809 | 0.861 | 0.551 | 0.397 | 0.482 | 0.479 | 0.564 |
| NCI-H1666 | 0.684 | 0.627 | 0.523 | 0.707 | 0.598 | 0.407 | 0.481 | 0.377 | 0.331 | 0.2 | 0.846 | 0.777 | 0.862 | 0.787 | 0.855 | 0.839 | 0.771 | 0.814 | 0.873 | 0.996 |
| NCI-H1734 | 0.349 | 0.309 | 0.342 | 0.331 | 0.371 | 0.467 | 0.585 | 0.459 | 0.454 | 0.431 | 0.655 | 0.594 | 0.712 | 0.636 | 0.687 | 0.544 | 0.361 | 0.522 | 0.572 | 0.54 |
| NCI-H1755 | 0.452 | 0.452 | 0.413 | 0.464 | 0.417 | 0.384 | 0.524 | 0.532 | 0.48 | 0.367 | 0.804 | 0.767 | 0.74 | 0.702 | 0.732 | 0.487 | 0.35 | 0.384 | 0.401 | 0.452 |
| NCI-H1792 | 0.637 | 0.63 | 0.557 | 0.606 | 0.615 | 0.284 | 0.351 | 0.277 | 0.281 | 0.304 | 0.536 | 0.33 | 0.352 | 0.437 | 0.36 | 0.582 | 0.502 | 0.617 | 0.7 | 0.515 |
| NCI-H1793 | 0.263 | – | 0.274 | 0.288 | 0.291 | 0.396 | 0.411 | 0.479 | 0.318 | 0.31 | 0.425 | – | 0.362 | 0.447 | 0.361 | 0.442 | – | 0.331 | 0.413 | 0.328 |
| NCI-H1915 | 0.538 | 0.525 | 0.496 | 0.492 | 0.483 | 1.02 | 0.954 | 1.03 | 0.961 | 0.927 | 0.276 | 0.319 | 0.274 | 0.289 | 0.306 | 0.671 | 0.627 | 0.684 | 0.681 | 0.711 |
| NCI-H1944 | 0.306 | 0.316 | 0.348 | 0.324 | 0.327 | 0.336 | 0.317 | 0.372 | 0.353 | 0.351 | 0.407 | 0.418 | 0.395 | 0.391 | 0.398 | 0.549 | 0.377 | 0.525 | 0.497 | 0.561 |
